Values quoted from earlier work in patent publication EP1982712A1 (priority 2005, dated 2007).

Conditions: for Clearance (route of elimination) / distribution volumes / time to reach the maximum concentration: in vivo; for time to reach the maximum concentration: po

distribution volumes	time to reach the maximum concentration	bioavailability (after oral administration)	Structure (SMILES)	Clearance (route of elimination)
0.7 to 1 L/kg	two	–	OC(Cn1cncn1)(Cn1cncn1)c1ccc(F)cc1F [fluconazole, Fluconazole]	eliminated in a higher proportion in urine
about 10.7 l/kg	up to four	about 50%	CCC(C)n1ncn(-c2ccc(N3CCN(c4ccc(OCC5COC(Cn6cncn6)(c6ccc(Cl)cc6Cl)O5)cc4)CC3)cc2)c1=O (stereo not shown) [itraconazole, Itraconazole]	cleared mainly through hepatic metabolism
